The assay has as its target T1, Human Recombinant Matriptase 2 (Homo sapiens, UniProt Q8IU80).
T1 construct: purchased Enzo Life Sciences (an in-house preparation was also used) ALX-201-752-1
T1 sequence (Q8IU80 1-811): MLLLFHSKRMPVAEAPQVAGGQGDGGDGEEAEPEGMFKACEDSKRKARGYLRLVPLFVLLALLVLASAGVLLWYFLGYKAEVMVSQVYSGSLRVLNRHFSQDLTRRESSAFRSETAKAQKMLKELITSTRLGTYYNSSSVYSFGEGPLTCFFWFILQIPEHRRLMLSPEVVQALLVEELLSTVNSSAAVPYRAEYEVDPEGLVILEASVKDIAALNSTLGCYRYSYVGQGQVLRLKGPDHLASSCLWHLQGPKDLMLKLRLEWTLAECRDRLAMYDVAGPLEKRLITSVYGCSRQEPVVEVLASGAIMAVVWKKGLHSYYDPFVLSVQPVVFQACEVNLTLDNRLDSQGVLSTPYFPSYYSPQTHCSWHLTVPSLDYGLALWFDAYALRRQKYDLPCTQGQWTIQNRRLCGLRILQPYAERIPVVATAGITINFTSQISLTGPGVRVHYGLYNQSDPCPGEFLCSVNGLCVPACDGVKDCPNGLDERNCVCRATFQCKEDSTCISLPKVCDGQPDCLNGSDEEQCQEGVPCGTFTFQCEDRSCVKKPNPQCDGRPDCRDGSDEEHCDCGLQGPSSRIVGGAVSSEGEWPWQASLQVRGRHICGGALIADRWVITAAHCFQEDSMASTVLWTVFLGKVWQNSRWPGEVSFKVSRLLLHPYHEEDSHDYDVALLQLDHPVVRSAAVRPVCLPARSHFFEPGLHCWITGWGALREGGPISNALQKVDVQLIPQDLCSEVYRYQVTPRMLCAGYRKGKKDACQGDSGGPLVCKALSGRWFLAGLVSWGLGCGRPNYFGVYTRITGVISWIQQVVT
The assay is described as follows: Matriptase 2 fluorescence based inhibition assay, Method B (50 mM TRIS pH 7.5, 150 mM NaCl, 0.01% gelatin). The assay is classed as biochemical. Particulars: 1 uM compound, Assay Used = B; for inhibition at 1 µM: read-out: Mar-2 % inhibition at 1 uM. Here is the method:
Test compounds were evaluated for their potential to inhibit Human Recombinant Matriptase 2 (in-house and commercial protein from Enzo Life Sciences—cat log -ALX-201-752-1) using fluorescence based assay. The concentration of Recombinant Matriptase 2 and the substrate used in the assay was: 7 nM (commercial) and 15 nM (Inhouse Matriptase 2) and 100 μM (Boc-Gln-Ala-Arg-7-amido-4-methyl coumarin hydrobromide—Cat log: B4153-Sigma and I-1550 from Bachem) respectively. The assay buffer used was 50 mM TRIS pH 7.5, 150 mM NaCl, 0.01% gelatin (G1393 Sigma). The assay was performed using 384 well black flat bottom plate from grenier (Cat log: 781076) at 25° C. The enzyme and compound preincubated for 30 mins, plate was read 60 mins after substrate addition at wavelength Ex: 360/Em:480 nm. The final assay volume of was 20 μl. Stock solution of compounds were initially prepared in DMSO and appropriate dilutions were made for screening and IC50 determination (final DMSO conc in the assay was 1%). All the measurements were carried out using the Spectramax M5, Molecular devices. The compounds were screened at 1 and 10 μM concentration and IC50 was determined for the interested compounds.
To determine IC50 values, dose response curves were generated by plotting percentage inhibition as a function of inhibitor concentration and the data was fitted to sigmoidal non-linear regression equation (variable slope) using Graph Pad prism software V7.

Turning to `N=C(N)c1ccc2cc(C(=O)O[C@H]3CC[C@H](N)CC3)n(Cc3cccc4ccccc34)c2c1` [Compound I-485, (1r,4r)-4-aminocyclohexyl 6-carbamimidoyl-1-(naphthalen-1-ylmethyl)-1H-indole-2-carboxylate], the inhibition (usually the drop in the measured response relative to a control, in per cent) at 1 µM was in the range of 75 to 100%. Still for that read-out and setting: the value for `COC(=O)c1cc2ccc(C(=N)N)cc2n1Cc1cccc2ccccc12` [Compound I-486, Methyl 6-carbamimidoyl-1-(naphthalen-1-ylmethyl)-1H-indole-2-carboxylate] was 25 to 50%; that for `N=C(N)c1ccc2cc(CO)n(Cc3cccc4ccccc34)c2c1` [Compound I-487, 2-(hydroxymethyl)-1-(naphthalen-1-ylmethyl)-1H-indole-6-carboximidamide] was 50 to 75%.

Regarding `N=C(N)c1ccc2cc(C(=O)O)n(-c3ccc4ccccc4c3)c2c1` [Compound I-488, 6-carbamimidoyl-1-(naphthalen-2-yl)-1H-indole-2-carboxylic Acid], the “Mar-2 % inhibition at 1 uM” value is recorded as “A (A represents 0%≤I≤25%)”.

`N=C(N)c1ccc2cc(C(=O)O)n(-c3cccc4ccccc34)c2c1` [Compound I-489]: the inhibition at 1 µM is 0 to 25%. For the molecule `N=C(N)c1ccc2cc(C(=O)NCC3CCNCC3)n(-c3ccc4ccccc4c3)c2c1` [Compound I-490, 6-carbamimidoyl-1-(naphthalen-2-yl)-N-(piperidin-4-ylmethyl)-1H-indole-2-carboxamide], the inhibition at 1 µM lay within 50 to 75%. On the same count and under the same terms, the value for `N=C(N)c1ccc2cc(C(=O)N[C@H]3CC[C@@H](N)CC3)n(-c3ccc4ccccc4c3)c2c1` [Compound I-491] was 50 to 75%; that for `CC(C)(C)OC(=O)NC(=N)c1ccc2cc(C(=O)NCC3CCN(C(=O)OC(C)(C)C)CC3)n(Cc3cccc4ccccc34)c2c1` [Compound I-492, tert-butyl4-((6-(N-(tert-butoxycarbonyl)carbamimidoyl)-1-(naphthalen-1-ylmethyl)-1H-indole-2-carboxamido)methyl)piperidine-1-carboxylate] was 25 to 50%; that for `CC(C)(C)OC(=O)NC(=N)c1ccc2cc(C(=O)NC3CCC(NC(=O)OC(C)(C)C)CC3)n(Cc3cccc(Cl)c3Cl)c2c1` (stereo not drawn) [Compound I-493] was 0 to 25%. In the case of `CC(C)(C)OC(=O)NC(=N)c1ccc2cc(C(=O)N[C@H]3CC[C@H](NC(=O)OC(C)(C)C)CC3)n(Cc3ccnc4ccccc34)c2c1` [Compound I-494], the inhibition at 1 µM is 0 to 25%. The same measure, in the same setting: the value for `CC(C)(C)OC(=O)NC(=N)c1ccc2cc(C(=O)N[C@H]3CC[C@H](NC(=O)OC(C)(C)C)CC3)n(Cc3ccc(C(N)=O)cc3)c2c1` [Compound I-495] was 0 to 25%; that for `N=C(N)c1ccc2cc(C(=O)NCC3CCNCC3)[nH]c2c1` [Compound I-496, 6-carbamimidoyl-N-(piperidin-4-ylmethyl)-1H-indole-2-carboxamide] was 0 to 25%. The same measure, in the same setting: the value for `N=C(N)c1ccc2cc(C(=O)NCC3CCNCC3)n(Cc3cccc4ccccc34)c2c1` [Compound I-497, 6-carbamimidoyl-1-(naphthalen-1-ylmethyl)-N-(piperidin-4-ylmethyl)-1H-indole-2-carboxamide] was 75 to 100%; that for `N=C(N)c1ccc2cc(C(=O)N[C@H]3CC[C@H](N)CC3)n(Cc3cccc(Cl)c3Cl)c2c1` [Compound I-498] was 25 to 50%; that for `N=C(N)c1ccc2cc(C(=O)N[C@H]3CC[C@H](N)CC3)n(Cc3ccnc4ccccc34)c2c1` [Compound I-499] was 50 to 75%. `N=C(N)c1ccc2cc(C(=O)N[C@H]3CC[C@H](N)CC3)n(Cc3ccc(C(N)=O)cc3)c2c1` [Compound I-500]: the inhibition at 1 µM fell in the range of 25 to 50%. Same read-out and setting: the value for `N=C(N)c1ccc2cc(C(=O)N[C@H]3CC[C@H](N)CC3)n(CCS(=O)(=O)c3cccc4ccccc34)c2c1` [Compound I-501] was 0 to 25%. On to `N=C(N)c1ccc2cc(C(=O)N[C@H]3CC[C@H](N)CC3)n(C(C(=O)O)c3cccc4ccccc34)c2c1` (stereo partly drawn) [Compound I-502], for which the inhibition at 1 µM lay in the range of 0 to 25%.

On to `N=C(N)c1ccc2cc(C(=O)N[C@H]3CC[C@H](N)CC3)n(Cc3c(Cl)cccc3Cl)c2c1` [Compound I-503], for which the inhibition at 1 µM fell in the range of 0 to 25%. Same read-out and setting: the value for `N=C(N)c1ccc2cc(C(=O)N[C@H]3CC[C@H](N)CC3)n(Cc3cccc4cnccc34)c2c1` [Compound I-504] was 50 to 75%; that for `N=C(N)c1ccc2cc(C(=O)N[C@H]3CC[C@H](N)CC3)n(Cc3cc(Cl)cc(Cl)c3)c2c1` [Compound I-505] was 25 to 50%. Turning to `COc1ccc2c(Cn3c(C(=O)N[C@H]4CC[C@H](N)CC4)cc4ccc(C(=N)N)cc43)cccc2c1` [Compound I-506], the inhibition at 1 µM is 75 to 100%. Take `N=C(N)c1ccc2cc(C(=O)N[C@H]3CC[C@H](N)CC3)n(Cc3cncc4ccccc34)c2c1` [Compound I-507]: the inhibition at 1 µM is 50 to 75%. Same read-out and setting: the value for `N=C(N)c1ccc2cc(C(=O)N[C@H]3CC[C@H](N)CC3)n(Cc3ccc(C(=O)O)c4ccccc34)c2c1` [Compound I-508] was 25 to 50%; that for `N=C(N)c1ccc2cc(C(=O)N[C@H]3CC[C@H](N)CC3)n(Cc3ccc(C(N)=O)c4ccccc34)c2c1` [Compound I-509] was 50 to 75%. In the case of `N=C(N)c1ccc2cc(C(=O)N[C@H]3CC[C@H](N)CC3)n(Cc3ccccc3-c3ccccc3)c2c1` [Compound I-510], the inhibition at 1 µM fell in the range of 0 to 25%. For the molecule `N=C(N)c1ccc2c(N)c(C(=O)N[C@H]3CC[C@H](N)CC3)n(Cc3cccc4ccccc34)c2c1` [Compound I-511, 3-amino-N-((1r,4r)-4-aminocyclohexyl)-6-carbamimidoyl-1-(naphthalen-1-ylmethyl)-1H-indole-2-carboxamide], the inhibition at 1 µM was 75 to 100%. The same measure, in the same setting: the value for `N=C(N)c1ccc2c(C(=O)O)c(C(=O)N[C@H]3CC[C@H](N)CC3)n(Cc3cccc4ccccc34)c2c1` [Compound I-512, 2-(((1r,4r)-4-aminocyclohexyl)carbamoyl)-6-carbamimidoyl-1-(naphthalen-1-ylmethyl)-1H-indole-3-carboxylic Acid] was 50 to 75%. Regarding `N=C(N)c1ccc2c(C(N)=O)c(C(=O)N[C@H]3CC[C@H](N)CC3)n(Cc3cccc4ccccc34)c2c1` [Compound I-513, N2-((1r,4r)-4-aminocyclohexyl)-6-carbamimidoyl-1-(naphthalen-1-ylmethyl)-1H-indole-2,3-dicarboxamide], the inhibition at 1 µM was 25 to 50%. The same measure, in the same setting: the value for `N#Cc1c(C(=O)N[C@H]2CC[C@H](N)CC2)n(Cc2cccc3ccccc23)c2cc(C(=N)N)ccc12` [Compound I-514, N-((1r,4r)-4-aminocyclohexyl)-6-carbamimidoyl-3-cyano-1-(naphthalen-1-ylmethyl)-1H-indole-2-carboxamide] was 0 to 25%; that for `N=C(N)c1ccc2c(C=O)c(C(=O)N[C@H]3CC[C@H](N)CC3)n(Cc3cccc4ccccc34)c2c1` [Compound I-515, N-((1r,4r)-4-aminocyclohexyl)-6-carbamimidoyl-3-formyl-1-(naphthalen-1-ylmethyl)-1H-indole-2-carboxamide] was 25 to 50%. On the same count and under the same terms, the value for `N=C(N)c1ccc2c(CO)c(C(=O)N[C@H]3CC[C@H](N)CC3)n(Cc3cccc4ccccc34)c2c1` [Compound I-516, N-((1r,4r)-4-aminocyclohexyl)-6-carbamimidoyl-3-(hydroxymethyl)-1-(naphthalen-1-ylmethyl)-1H-indole-2-carboxamide] was 0 to 25%; that for `COCc1c(C(=O)N[C@H]2CC[C@H](N)CC2)n(Cc2cccc3ccccc23)c2cc(C(=N)N)ccc12` [Compound I-517, N-((1r,4r)-4-aminocyclohexyl)-6-carbamimidoyl-3-(methoxymethyl)-1-(naphthalen-1-ylmethyl)-1H-indole-2-carboxamide] was 50 to 75%.

The values above are taken from patent US12428415B2, “Matriptase 2 inhibitors and uses thereof” (Disc Medicine, Inc., priority 2018, dated 2025).
